Results as given in paper PMC9124818 (Pharmacology Research & Perspectives, 2022).
Like-named read-outs stand apart in the source and are kept apart here.

Tests used:
CYP3A4/5 = experiment: Direct CYP450 inhibition in human liver microsomes (midazolam 1'-hydroxylation; testosterone 6β-hydroxylation); conditions: for Basic model: R1,gut: R1,gut = 1 + (Igut/Ki,u); for Basic model: R1: R1 = 1 + (Imax,u/Ki,u)
Description: (§3) A mixed‐gender pool of 200 individual human liver microsomal samples was used.
(§4) This LIMS utilizes the Levenberg-Marquardt algorithm to perform nonlinear regression fitting of the data to the following 4-parameter sigmoidal-logistic IC50 equation:
(§5) As percent of control values are utilized, the Min is set to 0 and the Max is set to 100 (or other values, as appropriate). […] Therefore, when an IC50 value falls outside the concentration range studied, the IC50 values are reported to be greater than the highest concentrations of test article evaluated.

CYP2B6 = biological target: T1, CYP2B6 (Homo sapiens, UniProt P20813); experiment: Direct CYP450 inhibition in human liver microsomes (efavirenz 8-hydroxylation); conditions: for Inhibition (%): FFA up to 60 µM, nFFA up to 100 µM; for Basic model: R1: R1 = 1 + (Imax,u/Ki,u)
T1 sequence (P20813 1-491): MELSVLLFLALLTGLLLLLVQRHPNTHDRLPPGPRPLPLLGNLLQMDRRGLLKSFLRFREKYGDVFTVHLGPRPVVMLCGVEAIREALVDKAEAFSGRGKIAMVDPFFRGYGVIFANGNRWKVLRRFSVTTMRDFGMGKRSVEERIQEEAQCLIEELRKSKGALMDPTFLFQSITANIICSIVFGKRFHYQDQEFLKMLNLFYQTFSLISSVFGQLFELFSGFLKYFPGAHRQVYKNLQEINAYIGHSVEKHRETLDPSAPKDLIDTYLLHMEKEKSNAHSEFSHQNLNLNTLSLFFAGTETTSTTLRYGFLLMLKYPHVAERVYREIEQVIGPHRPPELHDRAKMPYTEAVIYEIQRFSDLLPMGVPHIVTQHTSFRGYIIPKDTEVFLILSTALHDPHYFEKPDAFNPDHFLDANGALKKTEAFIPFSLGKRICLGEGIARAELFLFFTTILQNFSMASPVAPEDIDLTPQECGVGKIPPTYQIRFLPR
Description: as §3, §4, §5

OAT3 = biological target: T2, OAT3 (Homo sapiens, UniProt Q8TCC7); experiment: Transporter inhibition, uptake of [3H]-estrone-3-sulfate in HEK293 cells; assay type: in vitro ADME
T2 construct: host or cells: HEK293
T2 sequence (Q8TCC7 1-542): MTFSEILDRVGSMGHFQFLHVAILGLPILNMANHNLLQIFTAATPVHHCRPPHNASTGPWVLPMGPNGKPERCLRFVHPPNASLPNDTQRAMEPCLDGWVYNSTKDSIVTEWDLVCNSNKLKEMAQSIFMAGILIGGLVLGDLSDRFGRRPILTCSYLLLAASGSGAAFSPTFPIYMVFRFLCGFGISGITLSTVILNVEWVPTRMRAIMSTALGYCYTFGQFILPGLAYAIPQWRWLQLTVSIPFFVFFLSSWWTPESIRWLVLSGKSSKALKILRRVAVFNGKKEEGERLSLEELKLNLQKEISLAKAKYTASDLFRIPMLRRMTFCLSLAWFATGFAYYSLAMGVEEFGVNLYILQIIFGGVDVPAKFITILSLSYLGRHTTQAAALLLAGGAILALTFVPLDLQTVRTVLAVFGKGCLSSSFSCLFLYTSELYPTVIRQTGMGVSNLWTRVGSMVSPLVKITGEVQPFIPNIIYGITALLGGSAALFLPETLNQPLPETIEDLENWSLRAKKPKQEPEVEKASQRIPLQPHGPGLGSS
Method: (§1) The test compound (FFA or nFFA) or the positive control substrate ([…], respectively) was added to the donor chamber. […] Cells were then washed, lysed with scintillation cocktail, and analyzed for the probe substrate with a MicroBeta scintillation counter (PerkinElmer, Hopkinton, MA). Transcellular transporter assay conditions are described in Supplemental Table 1. Calculation of IC50 values was based on bidirectional permeability of probe substrate with and without the inhibitor in MDCKII cells expressing BCRP and in Caco‐2 cells expressing P‐gp, and transporter‐dependent uptake of probe substrate in HEK293 cells expressing all other transporters (Supplemental Table 1).
The transporter-specific uptake of the probe substrate in cells was determined by subtracting the accumulation in the control cells from the accumulation in the transporter-expressing cells.

P‐gp = biological target: T3, P‐gp (Homo sapiens, UniProt P08183); experiment: Transporter inhibition, bidirectional permeability of digoxin in Caco-2 cells; assay type: in vitro ADME
T3 construct: host or cells: Caco-2
T3 sequence (P08183 whole entry): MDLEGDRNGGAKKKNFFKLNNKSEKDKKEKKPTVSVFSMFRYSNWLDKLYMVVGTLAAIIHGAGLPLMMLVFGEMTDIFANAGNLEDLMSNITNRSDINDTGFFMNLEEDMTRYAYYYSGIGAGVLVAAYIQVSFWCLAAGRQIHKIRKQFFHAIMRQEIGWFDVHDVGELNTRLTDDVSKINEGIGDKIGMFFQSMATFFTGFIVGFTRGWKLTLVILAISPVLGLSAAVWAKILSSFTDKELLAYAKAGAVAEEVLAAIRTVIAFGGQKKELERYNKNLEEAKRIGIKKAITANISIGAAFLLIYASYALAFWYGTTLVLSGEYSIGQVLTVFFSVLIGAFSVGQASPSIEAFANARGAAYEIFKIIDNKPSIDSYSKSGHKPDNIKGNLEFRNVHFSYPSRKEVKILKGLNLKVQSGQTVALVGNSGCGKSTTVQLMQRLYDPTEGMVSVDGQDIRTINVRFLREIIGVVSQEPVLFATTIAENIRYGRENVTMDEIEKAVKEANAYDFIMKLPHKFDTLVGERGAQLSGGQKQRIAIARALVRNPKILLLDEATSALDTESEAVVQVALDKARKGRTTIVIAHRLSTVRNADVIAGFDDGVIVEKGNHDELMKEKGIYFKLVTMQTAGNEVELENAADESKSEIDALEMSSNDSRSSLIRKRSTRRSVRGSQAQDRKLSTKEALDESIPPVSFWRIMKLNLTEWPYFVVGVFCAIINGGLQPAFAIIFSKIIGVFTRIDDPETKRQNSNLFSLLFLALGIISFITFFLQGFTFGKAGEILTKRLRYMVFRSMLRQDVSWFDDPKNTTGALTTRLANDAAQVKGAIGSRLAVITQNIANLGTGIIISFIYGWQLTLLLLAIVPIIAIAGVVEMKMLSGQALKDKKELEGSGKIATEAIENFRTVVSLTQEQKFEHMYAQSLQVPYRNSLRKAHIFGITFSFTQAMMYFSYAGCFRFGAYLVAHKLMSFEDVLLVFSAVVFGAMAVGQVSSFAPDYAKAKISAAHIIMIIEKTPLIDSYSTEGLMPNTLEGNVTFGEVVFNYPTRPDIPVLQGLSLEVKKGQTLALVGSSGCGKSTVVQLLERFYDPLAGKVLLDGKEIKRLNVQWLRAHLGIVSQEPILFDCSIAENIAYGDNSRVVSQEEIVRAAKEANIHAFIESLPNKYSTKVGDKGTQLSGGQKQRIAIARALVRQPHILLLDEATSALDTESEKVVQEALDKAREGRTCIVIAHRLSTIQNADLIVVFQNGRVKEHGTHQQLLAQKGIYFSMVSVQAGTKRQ
Method: as §1
(§2) The net flux for human epithelial colorectal adenocarcinoma cells (Caco-2; P-gp) and MDCKII-BCRP inhibition determination was calculated according to the equation: […]

CYP2C9 = CYP2C9 (Homo sapiens, UniProt P11712); experiment: Direct CYP450 inhibition in human liver microsomes (diclofenac 4'-hydroxylation)
Sequence of CYP2C9 (P11712 whole entry): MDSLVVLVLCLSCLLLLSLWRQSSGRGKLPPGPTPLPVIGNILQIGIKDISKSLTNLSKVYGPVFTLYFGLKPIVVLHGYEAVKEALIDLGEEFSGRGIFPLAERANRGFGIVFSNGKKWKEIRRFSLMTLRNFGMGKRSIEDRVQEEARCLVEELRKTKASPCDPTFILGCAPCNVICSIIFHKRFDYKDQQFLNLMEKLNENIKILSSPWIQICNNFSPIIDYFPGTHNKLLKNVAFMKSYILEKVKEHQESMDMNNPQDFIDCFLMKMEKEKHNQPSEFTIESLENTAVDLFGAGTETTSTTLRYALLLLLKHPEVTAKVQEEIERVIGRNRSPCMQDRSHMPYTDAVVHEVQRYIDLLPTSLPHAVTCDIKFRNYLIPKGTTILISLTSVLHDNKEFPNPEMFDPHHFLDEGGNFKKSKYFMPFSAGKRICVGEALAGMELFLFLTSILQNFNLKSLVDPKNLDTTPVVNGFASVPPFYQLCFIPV
Description: as §3, §4, §5

BCRP = biological target: T4, BCRP (Homo sapiens, UniProt Q9UNQ0); experiment: Transporter inhibition, bidirectional permeability of prazosin in MDCKII-BCRP cells; assay type: in vitro ADME
T4 construct: host or cells: MDCKII
T4 sequence (Q9UNQ0 1-655): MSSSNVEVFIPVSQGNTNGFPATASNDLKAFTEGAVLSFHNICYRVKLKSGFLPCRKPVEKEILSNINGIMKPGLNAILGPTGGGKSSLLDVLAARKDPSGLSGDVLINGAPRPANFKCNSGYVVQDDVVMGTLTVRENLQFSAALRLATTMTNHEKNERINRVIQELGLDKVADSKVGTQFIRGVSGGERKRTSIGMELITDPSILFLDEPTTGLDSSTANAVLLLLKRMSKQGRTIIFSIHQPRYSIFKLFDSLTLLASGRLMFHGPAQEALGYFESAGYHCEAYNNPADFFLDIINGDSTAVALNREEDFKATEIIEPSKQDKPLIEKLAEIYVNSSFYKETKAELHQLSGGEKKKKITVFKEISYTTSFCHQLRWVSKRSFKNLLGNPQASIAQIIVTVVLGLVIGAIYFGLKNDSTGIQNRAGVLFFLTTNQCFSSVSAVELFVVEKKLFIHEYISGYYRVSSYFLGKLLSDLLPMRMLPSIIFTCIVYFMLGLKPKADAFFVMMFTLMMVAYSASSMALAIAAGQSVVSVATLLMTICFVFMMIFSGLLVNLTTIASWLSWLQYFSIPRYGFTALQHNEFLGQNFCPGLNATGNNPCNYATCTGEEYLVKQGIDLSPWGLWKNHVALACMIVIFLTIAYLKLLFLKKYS
Method: as §1, §2

[1] = Pharmacokinetic input parameters of the mechanistic static model (population pharmacokinetics); conditions: for Portal inlet [I]h: calculated as (Imax + (Fa × Fg × ka × molar dose) / Qh) / Rb; for Cmax, unbound: calculated as Cmax, total (ng/mL)/MW * fu
CYP2D6 = CYP2D6 (Homo sapiens, UniProt P10635); experiment: Direct CYP450 inhibition in human liver microsomes (dextromethorphan O-demethylation); conditions: for Inhibition (%): direct inhibition, FFA up to 60 µM, nFFA up to 100 µM; for Ah (guidance term): mechanistic static model, Supplemental Table 2; for Basic model: R1: R1 = 1 + (Imax,u/Ki,u)
Sequence of CYP2D6 (P10635 whole entry): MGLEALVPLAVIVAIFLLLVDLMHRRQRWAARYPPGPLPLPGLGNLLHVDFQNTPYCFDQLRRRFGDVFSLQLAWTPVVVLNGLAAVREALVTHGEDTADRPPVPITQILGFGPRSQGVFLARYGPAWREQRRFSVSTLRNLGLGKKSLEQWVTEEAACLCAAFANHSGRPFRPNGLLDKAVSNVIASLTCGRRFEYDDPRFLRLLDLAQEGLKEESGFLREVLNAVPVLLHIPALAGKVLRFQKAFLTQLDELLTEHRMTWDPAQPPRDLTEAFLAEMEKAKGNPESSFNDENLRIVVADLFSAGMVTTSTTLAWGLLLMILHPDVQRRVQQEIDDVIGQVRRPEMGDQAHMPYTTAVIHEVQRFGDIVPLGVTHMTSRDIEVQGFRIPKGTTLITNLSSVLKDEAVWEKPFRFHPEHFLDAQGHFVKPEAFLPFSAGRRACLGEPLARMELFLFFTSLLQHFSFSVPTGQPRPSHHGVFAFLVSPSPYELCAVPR
Method: Microsomes from non‐transplantable human livers were prepared and characterized as outlined previously.[25], [26] A mixed‐gender pool of 200 individual human liver microsomal samples was used. Substrate concentrations and incubation conditions for determination of the kinetic constant (S50 or Km) used to select marker substrate concentrations were previously determined.[24]
Summary data are expressed as percent of control and mean ± standard deviation (SD) or standard error of the mean (SEM), as appropriate. Individual values from inhibition studies were processed with the laboratory information management system (LIMS) Galileo v3.3 (Thermo Fisher Scientific), which was used to calculate IC50 values from a four‐parameter logistic regression applied to percent inhibition versus concentration values. […] Based on FDA guidance for metabolism‐ and transporter‐mediated DDI studies,[15] basic kinetic models for transporter inhibition, CYP450 inhibition, and CYP450 induction were employed to calculate R, R1, and R3 values, respectively, and were compared to the respective predetermined threshold values listed in the guidance document.[15] […] Plasma protein binding data were used to estimate input parameters for fraction unbound to plasma proteins in the mechanistic static model (Supplemental Table 2). The fraction absorbed was assumed to be 100%, yielding the highest possible portal concentrations. […] Assays were performed in duplicate or triplicate according to previously published reports. Statistical analysis for replicates was not possible with n = 2 sample sizes.
as §4, §5

[2] = direct inhibition, substrate efavirenz

| Compound | Basic model: Potential for clinical inhibition (R1) (CYP3A4/5; substrate midazolam) | Static mechanistic model: Potential for clinical inhibition (CYP3A4/5; substrate midazolam) | Basic model: Potential for clinical inhibition (R1) (CYP3A4/5; substrate testosterone) | Static mechanistic model: Potential for clinical inhibition (CYP3A4/5; substrate testosterone) | Basic model: R1 (CYP3A4/5; substrate testosterone) | Inhibition (%) (CYP2B6; [2]) | Basic model: Potential for clinical inhibition (CYP2B6; substrate efavirenz) | Static mechanistic model: Potential for clinical inhibition (CYP2B6; substrate efavirenz) | Basic model: R1 (CYP2B6; substrate efavirenz) | Basic model: Potential for clinical inhibition (CYP2C9; substrate diclofenac) | Static mechanistic model: Potential for clinical inhibition (CYP2C9; substrate diclofenac) | Portal inlet [I]h [1] [µM] | Cmax, unbound [1] [µM] | Inhibition (%) (CYP2D6; substrate dextromethorphan) | Ah (guidance term) (CYP2D6) | Basic model: Potential for clinical inhibition (CYP2D6; substrate dextromethorphan) | Static mechanistic model: Potential for clinical inhibition (CYP2D6; substrate dextromethorphan) | Basic model: R1 (CYP2D6; substrate dextromethorphan) | also measured |
| --- | --- | --- | --- | --- | --- | --- | --- | --- | --- | --- | --- | --- | --- | --- | --- | --- | --- | --- | --- |
| CCNC(C)Cc1cccc(C(F)(F)F)c1 (racemic) [FFA, (RS)‐ethyl(α‐methyl‐3‐trifluoromethylphenethyl)amine, reference compound] | No No ^b (Potential to inhibit if R1 ≥ 1.02) | No (Potential to inhibit if AUCR ≥ 1.25) | No No ^b (Potential to inhibit if R1 ≥ 1.02) | No (Potential to inhibit if AUCR ≥ 1.25) | 1.00 | 6.1 | No (Potential to inhibit if R1 ≥ 1.02) | No (Potential to inhibit if AUCR ≥ 1.25) | 1.01 | No (Potential to inhibit if R1 ≥ 1.02) | No (Potential to inhibit if AUCR ≥ 1.25) | 0.362 | 0.162 | 90 | 0.867 | Yes (Potential to inhibit if R1 ≥ 1.02) | No (Potential to inhibit if AUCR ≥ 1.25) | 1.07 | IC50 (CYP3A4/5; both, human, pooled human liver microsomes, pH 7.4, probe midazolam (1'-hydroxylation)): > 600 µM; IC50 (CYP3A4/5; both, human, pooled human liver microsomes, pH 7.4, probe testosterone (6β-hydroxylation)): > 600 µM; Basic model: Potential for clinical inhibition (R1,gut) (CYP3A4/5; substrate midazolam): No No ^b (Potential to inhibit if R1,gut ≥ 11); Basic model: R1,gut (CYP3A4/5; substrate midazolam): NC R1,gut = 1.78; Basic model: Potential for clinical inhibition (R1,gut) (CYP3A4/5; substrate testosterone): No No ^b (Potential to inhibit if R1,gut ≥ 11); Basic model: R1,gut (CYP3A4/5; substrate testosterone): 1.81; IC50 (CYP2B6): > 60 µM; IC50 (OAT3): > 30 µM; IC50 (P‐gp): > 100 µM; IC50 (CYP2C9): > 60 µM; Inhibition (%) (CYP2C9; direct inhibition, substrate diclofenac, FFA up to 60 µM, nFFA up to 100 µM): 2.4%; Basic model: R1 (CYP2C9; substrate diclofenac, R1 = 1 + (Imax,u/Ki,u)): 1.01; IC50 (BCRP): > 100 µM; IC50 (CYP2D6): 4.7 ± 0.2 µM; Ki (CYP2D6): 2.17 µM |
| CC(N)Cc1cccc(C(F)(F)F)c1.Cl (stereo not drawn) [nFFA, [1‐(3‐trifluoromethyl)phenyl]propan‐2‐amine hydrochloride] | No (Potential to inhibit if R1 ≥ 1.02) | No (Potential to inhibit if AUCR ≥ 1.25) | No (Potential to inhibit if R1 ≥ 1.02) | No (Potential to inhibit if AUCR ≥ 1.25) | 1.00 | 23 | No (Potential to inhibit if R1 ≥ 1.02) | No (Potential to inhibit if AUCR ≥ 1.25) | 1.00 | No (Potential to inhibit if R1 ≥ 1.02) | No (Potential to inhibit if AUCR ≥ 1.25) | 0.094 | 0.094 | 82 | 0.988 | No (Potential to inhibit if R1 ≥ 1.02) | No (Potential to inhibit if AUCR ≥ 1.25) | 1.01 | IC50 (CYP3A4/5; direct inhibition, human liver microsomes, substrate midazolam): > 100 µM; IC50 (CYP3A4/5; direct inhibition, human liver microsomes, substrate testosterone): > 100 µM; IC50 (CYP2B6; direct inhibition, human liver microsomes, substrate efavirenz): > 100 µM; IC50 (OAT3; HEK293, probe [3H]-estrone-3-sulfate 50 nM, read-out: IC50): > 50 µM; IC50 (P‐gp; Caco-2, probe digoxin 10 µM, read-out: IC50): > 50 µM; IC50 (CYP2C9; direct inhibition, human liver microsomes, substrate diclofenac): > 100 µM; IC50 (BCRP; MDCKII, probe prazosin 1 µM, read-out: IC50): > 50 µM; IC50 (CYP2D6; direct inhibition (no preincubation), human liver microsomes, substrate dextromethorphan): 16 ± 1 µM; Ki (CYP2D6; read-out: Ki, u, IC50 divided by 2, assumes [S] = Km, adjusted for estimated unbound fraction in microsomes): 7.86 µM |
